Measurements as given in patent US11130960B2, “Methods for conferring or enhancing herbicide resistance on plants and/or alga with protoporphyrinogen oxidase variants” (FARM HANNONG CO., LTD., priority 2014, dated 2021).

How the values were obtained:
Mutant AtPPO1 = target: T1, Mutant AtPPO1 (Arabidopsis thaliana, UniProt P55826, S305L/Y426M); experiment: Growth of transformed BT3(ΔPPO) E. coli in LB liquid medium (OD600); assay type: cell-based; conditions: 37° C., OD600 over culture time
T1 construct: expressed in transfected cells; host or cells: E. coli BT3(ΔPPO), pACBB vector
Experimental: (§1) In Example 3, herbicide resistance of respective BT3(ΔPPO) strains transformed with the wild-type AtPPO1, mutant AtPPO1, CyPPO2, CyPPO4 or CyPPO8 gene was investigated on agar media containing different herbicides, and in this Example, herbicide resistance of the strains was investigated in LB liquid media containing different herbicides.
(§2) HV-50 autoclave from Hirayama, HS2100A electronic scale from Hansung Instrument, CB-30V clean bench from Jeio Tech, JSI-200CL incubator from JSR, MQ-200 photometer from Apogee, and 1210 type UV-visible spectrophotometer from Thermo Fisher Scientific were used. The autoclave was used under conditions of 121° C. and 15 minutes, and the incubator was used at 37° C. with lighting of 160˜200 μmol m^−2s^−1 for a culture time of 13.5 hours. The UV-visible spectrophotometer was used at 600 nm.
(§3) Tiafenacil (M.W. 511.87 g/mol), Saflufenacil (M.W. 500.85 g/mol), and Fomesafen (M.W. 438.76 g/mol) used in the experiment were purchased from Dongbu Farm Hannong Co., Ltd, Sigma, and Sigma, respectively. These drugs were prepared at 200 mM concentration in 100% acetone, and stored at −20° C., respectively. Luria-Bertani(LB) medium (10 g/L of Bacto-Tryptone, 5 g/L of Yeast extract, 10 g/L of sodium chloride) and an antibiotic Chloramphenicol (Duchefa) were used.
(§4) For seed culture of E. coli transformed with respective genes, single colonies thereof were cultured in 3 ml of LB broth containing chloramphenicol for 12 hours, and they were diluted with LB broth to absorbance (OD600) of 1.5. Next, chloramphenicol and 500 μl of the seed culture of the transformed E. coli were added to 250 ml of LB liquid medium, and 50 ml of the culture was added to each 250 ml-flask. Each flask was treated with varying concentrations (0, 10 μM, 50 μM, 100 μM) of herbicide stocks (Tiafenacil, Saflufenacil, Fomesafen), and then incubated at 37° C. and 200 rpm. Absorbance (OD600) was measured using a spectrophotometer every 1.5 hours. The experiment was repeated three times, and mean values thereof were given in a graph. Error bars represent standard error of three repeats.

wild-type AtPPO1 = target: T2, wild-type AtPPO1 (Arabidopsis thaliana, UniProt P55826); experiment: as above; assay type: cell-based; conditions: 37° C., OD600 over culture time
T2 construct: expressed in transfected cells; host or cells: E. coli BT3(ΔPPO), pACBB vector
T2 sequence (P55826 35-537): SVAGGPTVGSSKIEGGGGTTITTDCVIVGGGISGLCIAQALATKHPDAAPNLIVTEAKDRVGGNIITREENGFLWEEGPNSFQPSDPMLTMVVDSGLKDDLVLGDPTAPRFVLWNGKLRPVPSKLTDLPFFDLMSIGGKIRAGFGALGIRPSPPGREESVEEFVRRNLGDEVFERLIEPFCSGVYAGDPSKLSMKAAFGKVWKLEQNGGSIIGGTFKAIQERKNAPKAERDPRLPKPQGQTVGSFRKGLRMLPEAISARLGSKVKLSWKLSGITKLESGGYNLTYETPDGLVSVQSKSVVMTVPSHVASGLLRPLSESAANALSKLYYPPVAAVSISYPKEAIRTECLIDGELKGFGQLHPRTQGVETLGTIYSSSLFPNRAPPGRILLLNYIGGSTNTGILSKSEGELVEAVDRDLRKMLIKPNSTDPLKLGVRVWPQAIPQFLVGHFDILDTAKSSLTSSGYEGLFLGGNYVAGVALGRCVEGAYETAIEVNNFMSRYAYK
Experimental: as §1, §2, §3, §4

CyPPO4 = experiment: as above; assay type: cell-based, Lyngbya sp. PCC 8106; conditions: 37° C., OD600 over culture time
Experimental: as §1, §2, §3, §4

CyPPO2 = experiment: as above; assay type: cell-based, Oscillatoria nigro-viridis PCC 7112; conditions: 37° C., OD600 over culture time
Experimental: as §1, §2, §3, §4

wild-type Col-0 plants = experiment: Herbicide spray test on Arabidopsis thaliana plants; assay type: in vivo; conditions: for outcome of plants at 7 days after spraying: 2-3 ml of 0.5 μM Tiafenacil, 1 μM Saflufenacil, or 3 μM Fomesafen per plant grown about 4 weeks
Experimental: To examine resistance of the transplanted T1 plants against PPO-based herbicides, the plants were grown for about 3-4 weeks, and then treated with herbicides prior to flower stalk elongation. […] Therefore, 1 μM tiafenacil was evenly applied at an amount proper for the number of plant individuals. After 7 days, resistance of the transformants against PPO-based herbicides was examined.
To examine whether herbicide resistance traits are maintained in the next generations of plants, respective T2 generation plants of Arabidopsis thaliana which were transformed with CyPPO2, CyPPO4 and CyPPO8 genes were subjected to an herbicide resistance test. 2-3 ml of 0.5 μM Tiafenacil, 1 μM Saflufenacil, or 3 μM Fomesafen was sprayed onto each Arabidopsis thaliana plant grown for about 4 weeks.

T1 sequence (P55826 35-537 S305L/Y426M): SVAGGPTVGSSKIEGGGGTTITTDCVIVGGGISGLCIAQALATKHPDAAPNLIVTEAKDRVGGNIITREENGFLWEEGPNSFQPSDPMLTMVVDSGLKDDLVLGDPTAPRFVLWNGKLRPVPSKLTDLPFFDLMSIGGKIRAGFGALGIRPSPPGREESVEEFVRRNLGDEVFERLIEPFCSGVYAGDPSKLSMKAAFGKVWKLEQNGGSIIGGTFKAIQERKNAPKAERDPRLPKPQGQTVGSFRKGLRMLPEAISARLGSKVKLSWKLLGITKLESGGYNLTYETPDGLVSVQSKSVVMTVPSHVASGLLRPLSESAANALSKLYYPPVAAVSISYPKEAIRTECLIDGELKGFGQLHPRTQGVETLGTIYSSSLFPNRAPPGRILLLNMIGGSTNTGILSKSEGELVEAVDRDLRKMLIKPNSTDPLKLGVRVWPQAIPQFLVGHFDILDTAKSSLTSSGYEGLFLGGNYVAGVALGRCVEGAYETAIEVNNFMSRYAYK

SMILES	concentration by which the strain normally grew (Mutant AtPPO1)	concentration at which the strain hardly grew (wild-type AtPPO1)	concentration by which the strain normally grew (CyPPO4)	concentration by which the strain normally grew (CyPPO2)	outcome of plants at 7 days after spraying (wild-type Col-0 plants)	concentration at which growth inhibition was observed (Mutant AtPPO1)	concentration at which the strain grew (Mutant AtPPO1)	outcome of plants after herbicide treatment (wild-type Col-0 plants; 2-3 ml of 1 μM tiafenacil (+0.05% Silwet L-77) per plant)	concentration at which growth inhibition began (wild-type AtPPO1)
CC(C)N(C)S(=O)(=O)NC(=O)c1cc(-n2c(=O)cc(C(F)(F)F)n(C)c2=O)c(F)cc1Cl [Saflufenacil]	≤ 100 µM	≥ 10 µM	≤ 100 µM	≤ 100 µM	killed				
COC(=O)CCNC(=O)C(C)Sc1cc(-n2c(=O)cc(C(F)(F)F)n(C)c2=O)c(F)cc1Cl (centres unmarked) [Tiafenacil]		≥ 10 µM	≤ 100 µM	≤ 100 µM	killed	≥ 50 µM	10 µM	killed	
CS(=O)(=O)NC(=O)c1cc(Oc2ccc(C(F)(F)F)cc2Cl)ccc1[N+](=O)[O-] [Fomesafen]	≤ 100 µM		≤ 100 µM	≤ 100 µM	killed				50 µM
